In patent US20250230165A1, “HETEROCYCLIC COMPOUNDS FOR USE IN THE TREATMENT OF CANCER” (ARTIOS PHARMA LIMITED, priority 2021, published 2025):

Target: T1, Human Polθ polymerase domain (aa1820-2590) (Homo sapiens, UniProt O75417)
T1 construct: Human Polθ polymerase domain (aa1820-2590) was expressed in E. coli; made in house; host or cells: E. coli
T1 sequence (O75417 1820-2590): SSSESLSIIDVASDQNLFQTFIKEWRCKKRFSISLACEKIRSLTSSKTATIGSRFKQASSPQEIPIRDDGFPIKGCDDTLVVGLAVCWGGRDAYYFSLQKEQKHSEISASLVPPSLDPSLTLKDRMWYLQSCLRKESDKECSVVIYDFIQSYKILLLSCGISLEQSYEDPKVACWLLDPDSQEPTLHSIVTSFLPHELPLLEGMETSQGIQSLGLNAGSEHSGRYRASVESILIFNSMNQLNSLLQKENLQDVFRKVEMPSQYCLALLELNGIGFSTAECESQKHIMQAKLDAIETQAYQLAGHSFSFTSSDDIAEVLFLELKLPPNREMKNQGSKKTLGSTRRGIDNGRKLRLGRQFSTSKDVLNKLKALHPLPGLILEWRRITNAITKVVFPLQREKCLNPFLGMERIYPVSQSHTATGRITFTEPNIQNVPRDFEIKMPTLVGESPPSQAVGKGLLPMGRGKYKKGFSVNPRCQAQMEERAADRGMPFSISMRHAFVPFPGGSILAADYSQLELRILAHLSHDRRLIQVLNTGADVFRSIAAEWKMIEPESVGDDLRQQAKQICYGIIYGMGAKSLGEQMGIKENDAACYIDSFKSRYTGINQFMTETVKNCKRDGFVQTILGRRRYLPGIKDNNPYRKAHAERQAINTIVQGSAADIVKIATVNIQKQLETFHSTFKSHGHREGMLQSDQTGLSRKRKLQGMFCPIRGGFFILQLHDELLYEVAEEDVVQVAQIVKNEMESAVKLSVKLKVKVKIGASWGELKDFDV
Assay: Polθ Polymerase Domain Kinact/KI Assay (PicoGreen)
Type: biochemical
Settings: 0.8 nM Polθ, 100 nM DNA substrate, kobs vs [I] fit for 2-step covalent inhibitor
Method in brief: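 Covalent inhibitors were tested against E. coli-expressed enzyme (0.8 nM final) with 100 nM annealed DNA substrate and […] in Tris pH 7.5 buffer, 1% DMSO. Reactions were EDTA-quenched over a 0–60 min time course and product DNA detected by PicoGreen fluorescence.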

Compound | Kinact/Kl [M⁻¹ s⁻¹]
C=CC(=O)N1CCC[C@H]1c1nc(CN2C[C@H]3CC(=O)N(c4cc(C(F)(F)F)cc(C)n4)[C@@H]3C(=O)N(C)c3cccc(C)c32)no1 [Example 271, (3aR,11aS)-5-((5-((S)-1-acryloylpyrrolidin-2-yl)-1,2,4-oxadiazol-3-yl)methyl)-6,10-dimethyl-1-(6-methyl-4-(trifluoromethyl)pyridin-2-yl)-1,3a,4,5,10,11a-hexahydro-2H-benzo[b]pyrrolo[2,3-f][1,4]diazocine-2,11(3H)-dione] | 200000
C=CC(=O)N1CC2(C1)N[C@H](C)CN(CCN1C[C@H]3CC(=O)N(c4cc(C(F)(F)F)cc(C)n4)[C@@H]3C(=O)N(C)c3cccc(F)c31)C2C (mixture of isomers) [Example 37b, (3aR,11aS)-5-(2-((6R,9R/S)-2-acryloyl-6,9-dimethyl-2,5,8-triazaspiro[3.5]nonan-8-yl)ethyl)-6-fluoro-10-methyl-1-(6-methyl-4-(trifluoromethyl)pyridin-2-yl)-1,3a,4,5,10,11a-hexahydro-2H-benzo[b]pyrrolo[2,3-f][1,4]diazocine-2,11(3H)-dione] | 580000
C=CC(=O)NCC12CC(CN3C[C@H]4CC(=O)N(c5cc(C(F)(F)F)cc(C)n5)[C@@H]4C(=O)N(C)c4cccc(C)c43)(C1)C2 [Example 175, N-((3-(((3aR,11aS)-6,10-dimethyl-1-(6-methyl-4-(tri-fluoromethyl)pyr-idin-2-yl)-2,11-dioxo-1,2,3,3a,4, 10,11,11a-octa-hydro-5H-benzo [b]pyrrolo[2,3-f] [1,4]diazocin-5-yl)methyl)bicyclo [1.1.1]pentan-1-yl)-methyl)acrylamide] | 370000
Cc1cc(C(F)(F)F)cc(N2C(=O)C[C@@H]3CN(CCCOC4CN(C(=O)/C(Cl)=C/CN(C)C)C4)c4c(F)cccc4N(C)C(=O)[C@H]32)n1 [Example 79, (3aR,11aS)-5-(3-((1-((Z)-2-chloro-4-(dimethylamino)but-2-enoyl)azetidin-3-yl)oxy)propyl)-6-fluoro-10-methyl-1-(6-methyl-4-(trifluoromethyl)pyridin-2-yl)-1,3a,4,5,10,11a-hexahydro-2H-benzo[b]pyrrolo[2,3-f][1,4]diazocine-2,11(3H)-dione] | 1.46e+06
C=CC(=O)N1CCN(c2nc(CN3C[C@H]4CC(=O)N(c5cc(C(F)(F)F)cc(C)n5)[C@@H]4C(=O)N(C)c4cccc(F)c43)co2)CC1 [Example 124, (3aR,11aS)-5-((2-(4-acryloylpiperazin-1-yl)oxazol-4-yl)methyl)-6-fluoro-10-methyl-1-(6-methyl-4-(trifluoromethyl)pyridin-2-yl)-1,3a,4,5,10,11a-hexahydro-2H-benzo[b]pyrrolo[2,3-f][1,4]diazocine-2,11(3H)-dione] | 11000
C=CC(=O)N1Cc2nc(CN3C[C@H]4CC(=O)N(c5cc(C(F)(F)F)cc(C)n5)[C@@H]4C(=O)Nc4cccc(Cl)c43)cn2C[C@@H]1C (racemic) [Example 144b, (3aR,11aS)-5-(((S/R)-7-acryloyl-6-methyl-5,6,7,8-tetrahydroimidazo[1,2-a]pyrazin-2-yl)methyl)-6-chloro-1-(6-methyl-4-(trifluoromethyl)pyridin-2-yl)-1,3a,4,5,10,11a-hexahydro-2H-benzo[b]pyrrolo[2,3-f][1,4]diazocine-2,11(3H)-dione] | 2e+06
C=CC(=O)N1CC(NCCCN2C[C@H]3CC(=O)N(c4cc(C(F)(F)F)cc(C)n4)[C@@H]3C(=O)N(C)c3cccc(F)c32)C1 [Example 70, (3aR,11aS)-5-(3-((1-acryloylazetidin-3-yl)amino)propyl)-6-fluoro-10-methyl-1-(6-methyl-4-(trifluoromethyl)pyridin-2-yl)-1,3a,4,5,10,11a-hexahydro-2H-benzo[b]pyrrolo[2,3-f][1,4]diazocine-2,11(3H)-dione] | 970000
C=C(CN(C)C)C(=O)N1CCn2cc(CN3C[C@H]4CC(=O)N(c5cc(C(F)(F)F)cc(C)n5)[C@@H]4C(=O)N(C)c4cccc(Cl)c43)nc2C1 [Example 159] | 3.07e+06
C=CC(=O)N1CC2(CN(CCN3C[C@H]4CC(=O)N(c5cc(C(F)(F)F)cc(C)n5)[C@@H]4C(=O)N(C)c4cccc(Cl)c43)C[C@H]2C#N)C1 (racemic) [Example 117b, (S/R)-2-acryloyl-6-(2-((3aR,11aS)-6-chloro-10-methyl-1-(6-methyl-4-(trifluoromethyl)pyridin-2-yl)-2,11-dioxo-1,2,3,3a,4,10,11,11a-octahydro-5H-benzo[b]pyrrolo[2,3-f][1,4]diazocin-5-yl)ethyl)-2,6-diazaspiro[3.4]octane-8-carbonitrile] | 3.5e+06
C=C(CN(C)C)C(=O)NCCOCCN1C[C@H]2CC(=O)N(c3cc(C(F)(F)F)cc(C)n3)[C@@H]2C(=O)N(C)c2cccc(C)c21 [Example 85, N-(2-(2-((3aR,11aS)-6,10-dimethyl-1-(6-methyl-4-(trifluoromethyl)pyridin-2-yl)-2,11-dioxo-1,2,3,3a,4,10,11,11a-octahydro-5H-benzo[b]pyrrolo[2,3-f][1,4]diazocin-5-yl)ethoxy)ethyl)-2-((dimethylamino)methyl)acrylamide] | 1.82e+06
